Experimental data taken from PubChem BioAssay AID1963964 (Molecular Pharmacology Branch, DTP, NCI, 2024).

System: 997726-040-R-J2-PDC tumor spheroids, viability
Assay: Anticancer human tumor 997726-040-R-J2-PDC patient-derived squamous cell lung carcinoma cell line growth inhibition [PI3K]
Conditions: spheroids with HUVEC and MSC; for IC50: curve of first compound; for viability, T/C: stronger effect = lower value; active means viability on the fitted dose curve at most 10% of control; inactive means the rest
In short: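 Tumor cells were combined with HUVEC and MSCs into spheroids, then dosed with PI3K-inhibitor combinations over half-log ranges capped near clinical Cmax or 10 microM.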

[1] = second compound 0.0316 µM, first compound 0.0316 µM
[2] = second compound 0.0316 µM, first compound 0.1 µM
[3] = second compound 0.0316 µM, first compound 0.316 µM
[4] = second compound 0.0316 µM, first compound 1 µM
[5] = second compound 0.0316 µM, first compound 3.16 µM
[6] = second compound 0.0316 µM, first compound 10 µM
[7] = second compound 0.1 µM, first compound 0.0316 µM
[8] = second compound 0.1 µM, first compound 0.1 µM
[9] = second compound 0.1 µM, first compound 0.316 µM
[10] = second compound 0.1 µM, first compound 1 µM
[11] = second compound 0.1 µM, first compound 3.16 µM
[12] = second compound 0.1 µM, first compound 10 µM
[13] = second compound 0.316 µM, first compound 0.0316 µM
[14] = second compound 0.316 µM, first compound 0.1 µM
[15] = second compound 0.316 µM, first compound 0.316 µM
[16] = second compound 0.316 µM, first compound 1 µM
[17] = second compound 0.316 µM, first compound 3.16 µM
[18] = second compound 0.316 µM, first compound 10 µM
[19] = second compound 1 µM, first compound 0.0316 µM
[20] = second compound 1 µM, first compound 0.1 µM
[21] = second compound 1 µM, first compound 0.316 µM
[22] = second compound 1 µM, first compound 1 µM
[23] = second compound 1 µM, first compound 3.16 µM
[24] = second compound 1 µM, first compound 10 µM
[25] = second compound 3.16 µM, first compound 0.0316 µM
[26] = second compound 3.16 µM, first compound 0.1 µM
[27] = second compound 3.16 µM, first compound 0.316 µM
[28] = second compound 3.16 µM, first compound 1 µM
[29] = second compound 3.16 µM, first compound 3.16 µM
[30] = second compound 3.16 µM, first compound 10 µM
[31] = second compound 10 µM, first compound 0.0316 µM
[32] = second compound 10 µM, first compound 0.1 µM
[33] = second compound 10 µM, first compound 0.316 µM
[34] = second compound 10 µM, first compound 1 µM
[35] = second compound 10 µM, first compound 3.16 µM
[36] = second compound 10 µM, first compound 10 µM
[37] = second compound 0.0316 µM, first compound 0.00316 µM
[38] = second compound 0.0316 µM, first compound 0.01 µM
[39] = second compound 0.1 µM, first compound 0.00316 µM
[40] = second compound 0.1 µM, first compound 0.01 µM
[41] = second compound 0.316 µM, first compound 0.00316 µM
[42] = second compound 0.316 µM, first compound 0.01 µM
[43] = second compound 1 µM, first compound 0.00316 µM
[44] = second compound 1 µM, first compound 0.01 µM
[45] = second compound 3.16 µM, first compound 0.00316 µM
[46] = second compound 3.16 µM, first compound 0.01 µM
[47] = second compound 10 µM, first compound 0.00316 µM
[48] = second compound 10 µM, first compound 0.01 µM
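Further: spheroids exposed to compounds for seven days before readout.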

CC(C)NCC(C(=O)N1CCN(c2ncnc3c2C(C)CC3O)CC1)c1ccc(Cl)cc1 (stereo not drawn) + CC(Nc1ncnc2nc[nH]c12)c1cc2cccc(Cl)c2c(=O)n1-c1ccccc1
active: viability, T/C [24] 9.4% | viability, T/C [36] 9.38%
55.6 nM: IC50 (second compound 10 µM)
388 nM: IC50 (second compound 0.0316 µM)
inactive: viability, T/C [1] 82.7% | viability, T/C [2] 74.3% | viability, T/C [3] 54.4% | viability, T/C [4] 29.7% | viability, T/C [5] 14.6% | viability, T/C [6] 10.8% | viability, T/C [7] 79.5% | viability, T/C [8] 85.4% | viability, T/C [9] 50.1% | viability, T/C [10] 31.6% | viability, T/C [11] 12.7% | viability, T/C [12] 10.7% | viability, T/C [13] 87.1% | viability, T/C [14] 87.3% | viability, T/C [15] 53.1% | viability, T/C [16] 27.4% | viability, T/C [17] 15.5% | viability, T/C [18] 9.73% | viability, T/C [19] 88.9% | viability, T/C [20] 69.2% | viability, T/C [21] 48.7% | viability, T/C [22] 32% | viability, T/C [23] 15% | viability, T/C [25] 80.1% | viability, T/C [26] 69.6% | viability, T/C [27] 46.3% | viability, T/C [28] 28.3% | viability, T/C [29] 15.3% | viability, T/C [30] 10.8% | viability, T/C [31] 54.7% | viability, T/C [32] 42.8% | viability, T/C [33] 41.8% | viability, T/C [34] 27.3% | viability, T/C [35] 13.7%
398 nM: IC50 (second compound 0.316 µM)
297 nM: IC50 (second compound 1 µM)
400 nM: IC50 (second compound 0.1 µM)
278 nM: IC50 (second compound 3.16 µM)

CCN1CCN(Cc2ccc(Nc3ncc(F)c(-c4cc(F)c5nc(C)n(C(C)C)c5c4)n3)nc2)CC1 + CC(Nc1ncnc2nc[nH]c12)c1cc2cccc(Cl)c2c(=O)n1-c1ccccc1
> 1000 nM: IC50 (second compound 0.0316 µM) | IC50 (second compound 0.1 µM) | IC50 (second compound 0.316 µM) | IC50 (second compound 1 µM) | IC50 (second compound 3.16 µM)
inactive: viability, T/C [37] 95.3% | viability, T/C [38] 82.4% | viability, T/C [1] 75.6% | viability, T/C [2] 74.4% | viability, T/C [3] 67.2% | viability, T/C [4] 76.8% | viability, T/C [39] 81.7% | viability, T/C [40] 91.1% | viability, T/C [7] 73.1% | viability, T/C [8] 68.3% | viability, T/C [9] 74.9% | viability, T/C [10] 82.7% | viability, T/C [41] 87.5% | viability, T/C [42] 97.1% | viability, T/C [13] 73.2% | viability, T/C [14] 68.7% | viability, T/C [15] 69.8% | viability, T/C [16] 78.4% | viability, T/C [43] 79.1% | viability, T/C [44] 78.4% | viability, T/C [19] 59.9% | viability, T/C [20] 61.5% | viability, T/C [21] 61.4% | viability, T/C [22] 68.9% | viability, T/C [45] 70.7% | viability, T/C [46] 66.1% | viability, T/C [25] 56.3% | viability, T/C [26] 52.1% | viability, T/C [27] 60.1% | viability, T/C [28] 66% | viability, T/C [47] 51.5% | viability, T/C [48] 50.9% | viability, T/C [31] 41.2% | viability, T/C [32] 40.9% | viability, T/C [33] 40.6% | viability, T/C [34] 47.1%
5.26 nM: IC50 (second compound 10 µM)

C[C@@H](NC(=O)c1ncnc(N)c1Cl)c1ncc(C(=O)Nc2cc(C(F)(F)F)c(Cl)cn2)s1 + CC(Nc1ncnc2nc[nH]c12)c1cc2cccc(Cl)c2c(=O)n1-c1ccccc1
4740 nM: IC50 (second compound 10 µM)
inactive: viability, T/C [1] 123% | viability, T/C [2] 112% | viability, T/C [3] 113% | viability, T/C [4] 120% | viability, T/C [5] 97.2% | viability, T/C [6] 84.1% | viability, T/C [7] 108% | viability, T/C [8] 129% | viability, T/C [9] 118% | viability, T/C [10] 118% | viability, T/C [11] 103% | viability, T/C [12] 68.7% | viability, T/C [13] 114% | viability, T/C [14] 114% | viability, T/C [15] 128% | viability, T/C [16] 119% | viability, T/C [17] 96.8% | viability, T/C [18] 70.1% | viability, T/C [19] 114% | viability, T/C [20] 102% | viability, T/C [21] 108% | viability, T/C [22] 113% | viability, T/C [23] 91.5% | viability, T/C [24] 72.8% | viability, T/C [25] 97% | viability, T/C [26] 90.9% | viability, T/C [27] 83.8% | viability, T/C [28] 79.2% | viability, T/C [29] 79.5% | viability, T/C [30] 61.5% | viability, T/C [31] 61.4% | viability, T/C [32] 62.4% | viability, T/C [33] 60.2% | viability, T/C [34] 59.5% | viability, T/C [35] 52.3% | viability, T/C [36] 43.9%
> 10000 nM: IC50 (second compound 0.0316 µM) | IC50 (second compound 0.1 µM) | IC50 (second compound 0.316 µM) | IC50 (second compound 1 µM) | IC50 (second compound 3.16 µM)

Cn1ncnc1[C@H]1c2n[nH]c(=O)c3cc(F)cc(c23)N[C@@H]1c1ccc(F)cc1 + CC(Nc1ncnc2nc[nH]c12)c1cc2cccc(Cl)c2c(=O)n1-c1ccccc1
80.4 nM: IC50 (second compound 10 µM)
inactive: viability, T/C (second compound 0.0316 µM, first compound 0.000316 µM) 101% | viability, T/C (second compound 0.0316 µM, first compound 0.001 µM) 99.9% | viability, T/C [37] 102% | viability, T/C [38] 112% | viability, T/C [1] 99.7% | viability, T/C [2] 96.8% | viability, T/C (second compound 0.1 µM, first compound 0.000316 µM) 96.5% | viability, T/C (second compound 0.1 µM, first compound 0.001 µM) 99.7% | viability, T/C [39] 94.4% | viability, T/C [40] 102% | viability, T/C [7] 98.4% | viability, T/C [8] 97.1% | viability, T/C (second compound 0.316 µM, first compound 0.000316 µM) 93.5% | viability, T/C (second compound 0.316 µM, first compound 0.001 µM) 99.4% | viability, T/C [41] 98% | viability, T/C [42] 101% | viability, T/C [13] 97.6% | viability, T/C [14] 99.3% | viability, T/C (second compound 1 µM, first compound 0.000316 µM) 100% | viability, T/C (second compound 1 µM, first compound 0.001 µM) 95.3% | viability, T/C [43] 90.4% | viability, T/C [44] 86.2% | viability, T/C [19] 86.2% | viability, T/C [20] 89.1% | viability, T/C (second compound 3.16 µM, first compound 0.000316 µM) 70.3% | viability, T/C (second compound 3.16 µM, first compound 0.001 µM) 77.9% | viability, T/C [45] 69.7% | viability, T/C [46] 65.5% | viability, T/C [25] 89.9% | viability, T/C [26] 67.2% | viability, T/C (second compound 10 µM, first compound 0.000316 µM) 54.8% | viability, T/C (second compound 10 µM, first compound 0.001 µM) 61.6% | viability, T/C [47] 55.3% | viability, T/C [48] 54% | viability, T/C [31] 55% | viability, T/C [32] 48.9%
> 100 nM: IC50 (second compound 0.0316 µM) | IC50 (second compound 0.1 µM) | IC50 (second compound 0.316 µM) | IC50 (second compound 1 µM) | IC50 (second compound 3.16 µM)
